The kinase profiling compilation of Christmann-Franck et al. (2016)

Legend:
Assay in all cases: radiometric filter-binding kinase assay, Kinase HotSpot
Conditions in all cases: compound 0.5 µM; ATP 10 µM
ABL1 (human) = ABL1 (human) (UniProt P00519)
ACVRL1 (human) = ACVRL1 (human) (UniProt P37023)
BRSK1 (human) = BRSK1 (human) (UniProt Q8TDC3)
BRSK2 (human) = BRSK2 (human) (UniProt Q8IWQ3)
CAMKK1 (human) = CAMKK1 (human) (UniProt Q8N5S9)
CDK2 CCNA2 (human) = CDK2 CCNA2 (human) (UniProt P24941+P20248)
CDK4 CCND3 (human) = CDK4 CCND3 (human) (UniProt P30281+P11802)
CDK9 CCNK (human) = CDK9 CCNK (human) (UniProt O75909+P50750)
CHEK2 (human) = CHEK2 (human) (UniProt O96017)
CLK3 (human) = CLK3 (human) (UniProt P49761)
CSF1R (human) = CSF1R (human) (UniProt P07333)
Sequence of CSF1R (human) (P07333 whole entry, looked up): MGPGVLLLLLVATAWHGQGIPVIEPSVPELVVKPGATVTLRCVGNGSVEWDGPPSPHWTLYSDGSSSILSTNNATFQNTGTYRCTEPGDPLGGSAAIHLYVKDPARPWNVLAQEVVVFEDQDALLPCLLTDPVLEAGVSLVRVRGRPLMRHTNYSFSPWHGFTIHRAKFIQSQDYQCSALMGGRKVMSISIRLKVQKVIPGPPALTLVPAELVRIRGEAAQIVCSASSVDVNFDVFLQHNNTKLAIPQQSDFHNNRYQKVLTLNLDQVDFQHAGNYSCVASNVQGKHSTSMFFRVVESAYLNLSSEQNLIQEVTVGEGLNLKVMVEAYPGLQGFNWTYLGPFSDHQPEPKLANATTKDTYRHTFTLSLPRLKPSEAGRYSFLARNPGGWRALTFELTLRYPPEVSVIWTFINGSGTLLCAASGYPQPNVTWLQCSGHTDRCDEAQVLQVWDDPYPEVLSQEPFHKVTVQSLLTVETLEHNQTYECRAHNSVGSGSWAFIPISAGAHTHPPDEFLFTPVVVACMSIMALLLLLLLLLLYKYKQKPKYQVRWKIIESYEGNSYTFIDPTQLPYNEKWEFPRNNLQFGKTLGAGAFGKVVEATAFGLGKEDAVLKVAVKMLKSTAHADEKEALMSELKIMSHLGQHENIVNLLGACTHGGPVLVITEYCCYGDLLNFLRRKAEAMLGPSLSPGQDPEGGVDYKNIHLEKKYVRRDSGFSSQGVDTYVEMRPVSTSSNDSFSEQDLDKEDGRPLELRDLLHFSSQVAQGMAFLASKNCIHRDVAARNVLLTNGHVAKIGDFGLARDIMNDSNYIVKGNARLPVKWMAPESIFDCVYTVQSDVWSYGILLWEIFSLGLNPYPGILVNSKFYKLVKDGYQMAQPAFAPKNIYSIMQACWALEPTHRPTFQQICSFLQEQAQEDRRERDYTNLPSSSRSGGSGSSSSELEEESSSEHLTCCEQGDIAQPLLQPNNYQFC

CSK (human) = CSK (human) (UniProt P41240)
Sequence of CSK (human) (P41240 whole entry, looked up): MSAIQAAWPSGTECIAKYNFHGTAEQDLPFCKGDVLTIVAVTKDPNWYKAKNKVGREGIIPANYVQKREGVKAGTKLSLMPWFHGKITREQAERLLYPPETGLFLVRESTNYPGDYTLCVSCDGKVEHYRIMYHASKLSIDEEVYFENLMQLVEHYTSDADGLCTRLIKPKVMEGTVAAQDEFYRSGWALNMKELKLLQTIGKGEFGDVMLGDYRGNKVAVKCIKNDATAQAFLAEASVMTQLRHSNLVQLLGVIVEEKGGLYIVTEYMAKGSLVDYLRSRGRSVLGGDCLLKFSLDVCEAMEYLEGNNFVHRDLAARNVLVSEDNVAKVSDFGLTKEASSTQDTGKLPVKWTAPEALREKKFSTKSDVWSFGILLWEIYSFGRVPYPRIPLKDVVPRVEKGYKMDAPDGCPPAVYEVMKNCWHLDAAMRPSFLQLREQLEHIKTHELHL

CSNK1D (human) = CSNK1D (human) (UniProt P48730)
CSNK1E (human) = CSNK1E (human) (UniProt P49674)
CSNK2A2 (human) = CSNK2A2 (human) (UniProt P19784)
DCLK2 (human) = DCLK2 (human) (UniProt Q8N568)
EGFR (human) = EGFR (human) (UniProt P00533)
EPHB3 (human) = EPHB3 (human) (UniProt P54753)
ERBB4 (human) = ERBB4 (human) (UniProt Q15303)
GSG2 (human) = GSG2 (human) (UniProt Q8TF76)
ITK (human) = ITK (human) (UniProt Q08881)
KIT (human) = KIT (human) (UniProt P10721)
MAP3K2 (human) = MAP3K2 (human) (UniProt Q9Y2U5)
Sequence of MAP3K2 (human) (Q9Y2U5 whole entry, looked up): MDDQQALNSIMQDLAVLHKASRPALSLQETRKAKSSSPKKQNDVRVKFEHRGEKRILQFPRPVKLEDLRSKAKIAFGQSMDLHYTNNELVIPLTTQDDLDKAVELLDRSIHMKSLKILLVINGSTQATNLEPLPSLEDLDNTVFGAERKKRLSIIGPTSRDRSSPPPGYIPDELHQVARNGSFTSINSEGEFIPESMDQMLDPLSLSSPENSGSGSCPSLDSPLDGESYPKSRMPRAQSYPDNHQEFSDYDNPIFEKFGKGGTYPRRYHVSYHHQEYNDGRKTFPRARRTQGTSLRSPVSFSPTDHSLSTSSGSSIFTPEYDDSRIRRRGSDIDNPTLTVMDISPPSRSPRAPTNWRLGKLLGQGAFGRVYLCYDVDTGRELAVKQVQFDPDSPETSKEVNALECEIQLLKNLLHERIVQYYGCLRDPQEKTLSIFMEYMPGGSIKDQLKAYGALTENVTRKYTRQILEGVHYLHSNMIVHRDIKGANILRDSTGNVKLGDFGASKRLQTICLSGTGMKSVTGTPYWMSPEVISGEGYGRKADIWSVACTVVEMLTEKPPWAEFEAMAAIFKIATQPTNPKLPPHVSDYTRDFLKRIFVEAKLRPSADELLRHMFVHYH

MAP3K7 TAB1 (human) = MAP3K7 TAB1 (human) (UniProt O43318+Q15750)
MAP4K2 (human) = MAP4K2 (human) (UniProt Q12851)
MAPK1 (human) = MAPK1 (human) (UniProt P28482)
MARK3 (human) = MARK3 (human) (UniProt P27448)
MARK4 (human) = MARK4 (human) (UniProt Q96L34)
MST1R (human) = MST1R (human) (UniProt Q04912)
PIM3 (human) = PIM3 (human) (UniProt Q86V86)
PRKD3 (human) = PRKD3 (human) (UniProt O94806)
PTK2B (human) = PTK2B (human) (UniProt Q14289)
Sequence of PTK2B (human) (Q14289 whole entry, looked up): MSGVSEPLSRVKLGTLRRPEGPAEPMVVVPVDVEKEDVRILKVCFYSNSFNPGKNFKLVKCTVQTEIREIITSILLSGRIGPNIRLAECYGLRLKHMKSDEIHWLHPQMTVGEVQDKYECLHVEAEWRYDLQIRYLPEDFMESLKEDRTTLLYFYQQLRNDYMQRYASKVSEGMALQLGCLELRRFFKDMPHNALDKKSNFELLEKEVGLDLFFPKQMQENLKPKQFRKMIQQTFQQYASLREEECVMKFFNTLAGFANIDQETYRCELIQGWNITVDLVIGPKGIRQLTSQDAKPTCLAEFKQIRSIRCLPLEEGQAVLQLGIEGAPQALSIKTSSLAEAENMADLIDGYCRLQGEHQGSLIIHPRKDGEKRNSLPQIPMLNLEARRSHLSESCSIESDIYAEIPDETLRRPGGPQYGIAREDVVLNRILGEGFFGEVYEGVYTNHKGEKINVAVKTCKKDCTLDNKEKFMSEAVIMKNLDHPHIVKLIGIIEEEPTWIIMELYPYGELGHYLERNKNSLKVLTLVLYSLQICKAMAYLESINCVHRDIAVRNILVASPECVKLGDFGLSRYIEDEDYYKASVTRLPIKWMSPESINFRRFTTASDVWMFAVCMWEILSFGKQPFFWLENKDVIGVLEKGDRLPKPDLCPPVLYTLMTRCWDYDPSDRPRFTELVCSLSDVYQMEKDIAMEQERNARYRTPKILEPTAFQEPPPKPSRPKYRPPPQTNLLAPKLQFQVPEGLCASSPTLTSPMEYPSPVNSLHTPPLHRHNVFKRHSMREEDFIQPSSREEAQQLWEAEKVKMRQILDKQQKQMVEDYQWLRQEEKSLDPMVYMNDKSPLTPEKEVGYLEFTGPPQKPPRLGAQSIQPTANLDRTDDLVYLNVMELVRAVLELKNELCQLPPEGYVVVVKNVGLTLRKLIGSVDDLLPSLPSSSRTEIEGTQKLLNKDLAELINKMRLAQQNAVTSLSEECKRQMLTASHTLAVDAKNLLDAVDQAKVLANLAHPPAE

RAF1 (human) = RAF1 (human) (UniProt P04049)
ROCK2 (human) = ROCK2 (human) (UniProt O75116)
ROS1 (human) = ROS1 (human) (UniProt P08922)
STK39 (human) = STK39 (human) (UniProt Q9UEW8)
STK4 (human) = STK4 (human) (UniProt Q13043)
TGFBR1 (human) = TGFBR1 (human) (UniProt P36897)
TSSK1B (human) = TSSK1B (human) (UniProt Q9BXA7)
TTK (human) = TTK (human) (UniProt P33981)
TYRO3 (human) = TYRO3 (human) (UniProt Q06418)
ZAP70 (human) = ZAP70 (human) (UniProt P43403)

Sequence of CAMKK1 (human) (Q8N5S9 whole entry, looked up): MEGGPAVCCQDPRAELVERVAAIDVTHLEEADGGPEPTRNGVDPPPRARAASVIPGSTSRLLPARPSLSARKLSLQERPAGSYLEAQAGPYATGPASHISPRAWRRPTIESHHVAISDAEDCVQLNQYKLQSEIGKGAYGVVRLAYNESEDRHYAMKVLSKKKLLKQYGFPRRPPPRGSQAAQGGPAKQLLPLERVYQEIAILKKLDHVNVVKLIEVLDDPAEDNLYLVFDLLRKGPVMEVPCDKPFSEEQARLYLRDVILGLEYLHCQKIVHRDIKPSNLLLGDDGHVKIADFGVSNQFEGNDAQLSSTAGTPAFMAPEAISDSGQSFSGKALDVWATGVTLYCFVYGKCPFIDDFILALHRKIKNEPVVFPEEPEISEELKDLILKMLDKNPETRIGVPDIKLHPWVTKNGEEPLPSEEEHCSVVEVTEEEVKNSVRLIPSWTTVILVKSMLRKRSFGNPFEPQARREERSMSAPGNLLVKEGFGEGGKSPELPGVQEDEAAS
Sequence of ABL1 (human) (P00519 whole entry, looked up): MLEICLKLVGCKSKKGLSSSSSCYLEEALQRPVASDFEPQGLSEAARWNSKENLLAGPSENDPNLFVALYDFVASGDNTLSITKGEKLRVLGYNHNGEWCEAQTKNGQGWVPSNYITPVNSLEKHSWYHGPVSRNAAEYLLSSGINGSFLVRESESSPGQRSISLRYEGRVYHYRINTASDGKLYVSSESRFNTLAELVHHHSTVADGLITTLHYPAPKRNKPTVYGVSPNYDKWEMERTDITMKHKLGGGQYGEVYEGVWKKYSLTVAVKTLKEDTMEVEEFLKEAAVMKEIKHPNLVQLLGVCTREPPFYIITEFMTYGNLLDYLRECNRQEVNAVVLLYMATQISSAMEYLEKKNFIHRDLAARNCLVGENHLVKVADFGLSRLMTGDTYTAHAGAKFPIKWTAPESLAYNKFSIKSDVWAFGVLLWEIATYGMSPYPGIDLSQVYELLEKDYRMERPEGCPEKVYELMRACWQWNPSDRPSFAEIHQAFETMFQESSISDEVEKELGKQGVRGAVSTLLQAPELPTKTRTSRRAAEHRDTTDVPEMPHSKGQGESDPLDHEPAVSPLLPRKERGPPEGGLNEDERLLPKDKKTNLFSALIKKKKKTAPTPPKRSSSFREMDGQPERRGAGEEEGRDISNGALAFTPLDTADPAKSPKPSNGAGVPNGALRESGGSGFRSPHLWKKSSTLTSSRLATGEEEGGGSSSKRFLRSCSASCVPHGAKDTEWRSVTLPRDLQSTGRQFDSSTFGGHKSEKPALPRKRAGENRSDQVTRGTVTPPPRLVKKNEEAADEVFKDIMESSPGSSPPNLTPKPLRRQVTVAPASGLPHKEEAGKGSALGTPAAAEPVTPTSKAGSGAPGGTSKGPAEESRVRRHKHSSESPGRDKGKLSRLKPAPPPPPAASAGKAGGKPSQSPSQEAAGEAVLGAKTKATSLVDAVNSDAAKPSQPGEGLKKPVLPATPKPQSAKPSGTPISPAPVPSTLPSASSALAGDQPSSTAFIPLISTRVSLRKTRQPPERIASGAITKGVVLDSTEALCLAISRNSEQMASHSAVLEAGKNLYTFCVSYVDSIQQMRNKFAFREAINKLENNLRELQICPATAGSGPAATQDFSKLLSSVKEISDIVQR

SMILES: Cn1nc2c3c(cccc31)C(=O)c1ccccc1-2
- residual activity (ABL1 (human)): 99.1%
- residual activity (ACVRL1 (human)): 102%
- residual activity (BRSK1 (human)): 92.5%
- residual activity (BRSK2 (human)): 96.4%
- residual activity (CAMKK1 (human)): 102%
- residual activity (CDK2 CCNA2 (human)): 105%
- residual activity (CDK4 CCND3 (human)): 92.4%
- residual activity (CDK9 CCNK (human)): 96.5%
- residual activity (CHEK2 (human)): 89.8%
- residual activity (CLK3 (human)): 98.5%
- residual activity (CSF1R (human)): 97%
- residual activity (CSK (human)): 88.7%
- residual activity (CSNK1D (human)): 20.8%
- residual activity (CSNK1E (human)): 34.3%
- residual activity (CSNK2A2 (human)): 86.6%
- residual activity (DCLK2 (human)): 94.2%
- residual activity (EGFR (human)): 105%
- residual activity (EPHB3 (human)): 85.5%
- residual activity (ERBB4 (human)): 94.3%
- residual activity (GSG2 (human)): 53.1%
- residual activity (ITK (human)): 88.3%
- residual activity (KIT (human)): 86.4%
- residual activity (MAP3K2 (human)): 103%
- residual activity (MAP3K7 TAB1 (human)): 83.9%
- residual activity (MAP4K2 (human)): 75.4%
- residual activity (MAPK1 (human)): 91.7%
- residual activity (MARK3 (human)): 96.6%
- residual activity (MARK4 (human)): 91.1%
- residual activity (MST1R (human)): 96.7%
- residual activity (PIM3 (human)): 76.8%
- residual activity (PRKD3 (human)): 65.5%
- residual activity (PTK2B (human)): 102%
- residual activity (RAF1 (human)): 87%
- residual activity (ROCK2 (human)): 92.3%
- residual activity (ROS1 (human)): 104%
- residual activity (STK39 (human)): 101%
- residual activity (STK4 (human)): 78.9%
- residual activity (TGFBR1 (human)): 93.7%
- residual activity (TSSK1B (human)): 98.4%
- residual activity (TTK (human)): 77.7%
- residual activity (TYRO3 (human)): 99.8%
- residual activity (ZAP70 (human)): 95.1%
